According to US4593090A, “Novel nitrosourea compounds, method for preparing same, and pharmaceutical composition containing same” (Gogo Kimura, priority 1981, dated 1986):
Like-named read-outs stand apart in the source and are kept apart here.

Tests used:
Leukemia L1210 [1] = experiment: Activity against Leukemia L1210, intraperitoneal, increase in life span of mice; type: in vivo, female mice (BDF1 family); settings: for ED (maximum ILS) / ED30: Mus musculus, L1210, ip, ip once a day for 5 successive days; for ED (maximum ILS): daily dosage giving maximum increase of life span, read-out: O.D. (optimum dosage); for ED30: daily dosage increasing average survival days by 30%, read-out: ILS30; for Survivors after 60 days / Max. ILS % / Therapeutic ratio TR: ip; for Survivors after 60 days: 6-membered group; for Max. ILS %: 60-day observation, versus control; for Therapeutic ratio TR: O.D./ILS30
How it was run: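 L1210 cells (1×10^5) into abdominal cavity of female BDF1 mice, 20–23 g, n=6/group. Dosing 24 h post-implant, ip or po, qd ×5. 60-day observation; ILS% = mean survival vs untreated control; T.R. = O.D./ILS 30.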

Leukemia L1210 [2] = experiment: Activity against Leukemia L1210, oral, increase in life span of mice; type: in vivo, female mice (BDF1 family); settings: for ED (maximum ILS) / ED30: Mus musculus, L1210, oral once a day for 5 successive days; for ED (maximum ILS): daily dosage giving maximum increase of life span, read-out: O.D. (optimum dosage); for ED30: daily dosage increasing average survival days by 30%, read-out: ILS30; for Survivors after 60 days / Max. ILS % / Therapeutic ratio TR: oral; for Survivors after 60 days: 6-membered group; for Max. ILS %: 60-day observation, versus control; for Therapeutic ratio TR: O.D./ILS30
Experimental: Tests were conducted in accordance with the method for measuring antitumor activity of National Cancer Center Tokyo (A, Hoshi et al, Farumashia 9 464 (1973)). Test compounds were each intraperitoneally (referred to as ip) or orally (referred to as op) administered once a day for 5 successive days to a 6-membered group of femal mice (BDF1 family, each weighing 20 to 23 g) 24 hours after 1×10^5 cells of Leukemia L1210 have been implantated into the abdominal cavities of the mice, and the effect was evaluated by comparing the survival days of treated groups with those of an untreated group of mice (control group) in 60-day observation. An increase percentage of life span (ILS%) was calculated from said average survival days compared with those of the control group. Further, therapeutic ratio (O.D./ILD30, referred to as T.R.) of each tested compound was calculated from the daily dosage of the compound necessary to increase said average survival days by 30% as compared with the control group (this dosage is referred to as ILS 30) and the daily dosage giving a maximum increase of life span to mice implantated with L1210 cells, namely an optimum dosage (referred to as O.D.). The results of five successive days intraperitoneal administrations of test compounds were shown in Tables I to III, and those of five successive oral administrations in Table IV.

Ehrlich acites carcinoma = experiment: Growth-inhibiting effect against Ehrlich acites carcinoma; type: in vivo, male mice; settings: Mus musculus, Ehrlich, 120 h, 5 days; for response vs control in vivo at 25 mg/kg: 25 mg/kg/day ip; for response vs control in vivo at 100 mg/kg: 100 mg/kg/day ip
Experimental: Ehrlich acites carcinoma (1×10^7 cells) was implantated into the abdominal cavities of a 6-membered group of male mice. Test compounds (solutions or suspensions in 1% Nikohl HCO-60) were each intraperioneally administered once a day 5 successive days to the mice 24 hrs. after the implantation. Total packed cell volumes [TPCV, namely, total packed volumes of Acites carcinoma] were determined 7 days after the implantation to calculate growth ratio of tumor [T/C%; T: packed volume of Acites carcinoma in treated groups, C: packed volume of Acites carcinoma in an untreated group]. Acitivity is represented by - when T/C% is 100-66, by + when T/C% 65-41, by ++ when T/C% 40-11, and by +++ when T/C% 10-0.

[3] = Acute toxicity (LD50, Behrens-Karber method); type: in vivo, ICR mice; settings: mouse, in vivo, ip, mortality during 30 days
Experimental: Test compounds, dissolved or suspended in 0.5% aqueous CMC, were each intraperitoneally administered to ICR mice in a dose of 0.1 ml per 10 g body weight. LD50 (mg/kg) value of each test compound was calculated from the mortality of mice during 30 days by the Behrens-Karber method.

| Compound | ED (maximum ILS) (Leukemia L1210 [1]) | ED30 (Leukemia L1210 [1]) | Survivors after 60 days (Leukemia L1210 [1]) | Max. ILS % (Leukemia L1210 [1]) | Therapeutic ratio TR (Leukemia L1210 [1]) | ED (maximum ILS) (Leukemia L1210 [2]) | ED30 (Leukemia L1210 [2]) | Survivors after 60 days (Leukemia L1210 [2]) | Max. ILS % (Leukemia L1210 [2]) | Therapeutic ratio TR (Leukemia L1210 [2]) | response vs control in vivo at 25 mg/kg (Ehrlich acites carcinoma; read-out: Activity) | response vs control in vivo at 25 mg/kg (Ehrlich acites carcinoma; read-out: T/C %) | response vs control in vivo at 100 mg/kg (Ehrlich acites carcinoma; read-out: Activity) | response vs control in vivo at 100 mg/kg (Ehrlich acites carcinoma; read-out: T/C %) | LD50 at 720 h [3] |
| --- | --- | --- | --- | --- | --- | --- | --- | --- | --- | --- | --- | --- | --- | --- | --- |
| COCCCN(C[C@H]1O[C@H](OCC(C)C)[C@H](O)[C@H]1O)C(=O)N(CCCl)N=O [Compound 164, 3-(3-methoxy-n-propyl)-3-(isobutyl α-D-xylofuranose-5-yl)-1-(2-chloroethyl)-1-nitrosourea] | 160 mg/kg | 2.72 mg/kg | 6/6 | > 700% | 58.8 | 185 mg/kg | 14.5 mg/kg | 5/6 | > 620% | 12.8 | 0 to 10% | 0% | 0 to 10% | 0% | 520 mg/kg |
| COCC(C)N(C[C@H]1O[C@H](OCC(C)C)[C@H](O)[C@@H](O)[C@@H]1O)C(=O)N(CCCl)N=O (stereo partly drawn) [Compound 16, 3-(1-methyl-2-methoxyethyl)-3-(isobutyl α-D-glucopyranose-6-yl)-1-(2-chloroethyl)-1-nitrosourea] | 190 mg/kg | 2.9 mg/kg | 6/6 | > 700% | 65.6 | 240 mg/kg | 8.82 mg/kg | 6/6 | > 700% | 27.2 | 0 to 10% | 0% | 0 to 10% | 0% | 580 mg/kg |
| COC(C)CN(C(=O)N(CCCl)N=O)[C@H]1CO[C@@H](OCC(C)C)[C@H](O)[C@H]1O (stereo partly drawn) [Compound 153, 3-(2-methoxy-n-propyl)-3-(isobutyl α-L-arabinopyranose-4-yl)-1-(2-chloroethyl)-1-nitrosourea] | 150 mg/kg | 2.57 mg/kg | 5/6 | > 625% | 58.4 | 180 mg/kg | 10.8 mg/kg | 4/6 | > 425% | 16.7 | – | – | – | – | 480 mg/kg |
| CC(C)CN(C[C@@H]1O[C@@H](OC2CCCCC2)[C@H](O)[C@@H]1O)C(=O)N(CCCl)N=O [Compound 171, 3-isobutyl-3-(cyclohexyl α-L-lyxofuranose-5-yl)-1-(2-chloroethyl)-1-nitrosourea] | 150 mg/kg | 3.3 mg/kg | 4/6 | > 440% | 45.5 | 190 mg/kg | 11.7 mg/kg | 4/6 | > 450% | 16.2 | – | – | – | – | 450 mg/kg |
| COCC(C)N(C[C@H]1O[C@H](OC2CCCCC2)[C@@H](O)[C@@H](O)[C@H]1O)C(=O)N(CCCl)N=O (stereo partly drawn) [Compound 145, 3-(1-methyl-2-methoxyethyl)-3-(cyclohexyl α-D-talopyranose-6-yl)-1-(2-chloroethyl)-1-nitrosourea] | 170 mg/kg | 2.91 mg/kg | 6/6 | > 700% | 58.4 | 200 mg/kg | 10.9 mg/kg | 4/6 | > 450% | 18.3 | – | – | – | – | 580 mg/kg |
| COCCOCCO[C@H]1O[C@H](CN(C(=O)N(CCCl)N=O)C(C)(C)C)[C@@H](O)[C@H](O)[C@H]1O [Compound 197] | 160 mg/kg | 2.7 mg/kg | 6/6 | > 700% | 59.2 | 200 mg/kg | 9.26 mg/kg | 5/6 | > 625% | 21.6 | – | – | – | – | 530 mg/kg |
